Measurements published in patent US20210154188A1, “ALK5 INHIBITORS, CONJUGATES, AND USES THEREOF” (SILVERBACK THERAPEUTICS, INC., priority 2018, published 2021).

Tests used:
ALK5 = target: T1, ALK5 (Homo sapiens, UniProt P36897); experiment: ALK5 enzyme inhibition assay (33P-ATP filter-binding, Reaction Biology Corp); format: biochemical; settings: casein substrate 1 mg/mL, 10 uM ATP
T1 construct: purchased Reaction Biology Corp (Malvern, PA)
T1 sequence (P36897 34-503): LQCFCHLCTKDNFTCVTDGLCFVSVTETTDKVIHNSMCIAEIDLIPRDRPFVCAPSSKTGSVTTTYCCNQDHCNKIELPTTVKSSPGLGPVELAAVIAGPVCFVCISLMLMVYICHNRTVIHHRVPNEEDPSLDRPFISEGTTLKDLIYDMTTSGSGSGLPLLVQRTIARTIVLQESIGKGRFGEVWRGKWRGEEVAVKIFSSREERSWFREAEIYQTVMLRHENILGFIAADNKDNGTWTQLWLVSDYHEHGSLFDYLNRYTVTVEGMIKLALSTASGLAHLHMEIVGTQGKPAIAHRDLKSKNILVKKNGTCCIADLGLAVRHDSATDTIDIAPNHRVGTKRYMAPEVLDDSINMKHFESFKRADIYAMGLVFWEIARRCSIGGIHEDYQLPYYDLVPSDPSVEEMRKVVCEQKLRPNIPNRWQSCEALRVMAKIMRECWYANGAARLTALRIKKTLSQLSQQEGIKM
Method: ALK5 enzyme inhibition assays were performed by Reaction Biology Corp (Malvern, PA). 1 mg/mL of peptide subtrate (casein) and 10 uM ATP were prepared in a mixture of fresh reaction buffer. The kinase was delivered into the substrate solution which was gently mixed. Compounds in 100% DMSO were added to the kinase reaction mixture by Acoustic technology (Echo550; nanoliter range) and the mixture was incubated for 20 min at room temperature. ^33P-ATP (Specific activity 10 uCi/uL) was added into the reaction mixture to initiate the reaction and the reaction mixture was incubated for 2 hours at room temperature. Radioactivity was detected by filter-binding method and kinase activity data were expressed as the percent remaining kinase activity in test samples compared to vehicle (dimethyl sulfoxide) reactions. IC50 values and curve fits were obtained using Prism (GraphPad Software).

[1] = tested on: TGFb/SMAD Signaling Pathway SBE reporter cell line; experiment: TGFb reporter assay (luciferase); format: cell-based; settings: 5-6 h preincubation, then TGFb, 18 h, luminescence
Method: TGFb/SMAD Signaling Pathway SBE reporter cell line was obtained from BPS Bioscience. Cells were passed/expanded/stored in liquid nitrogen per supplier's instruction with the exception that growth media was changed to DMEM-C with Geneticin (DMEM supplemented with 10% fetal bovine serum, 1× NEAA, 1 mM Pyruvate, 2 mM glutamine, 50 μg/mL penicillin, 50 U/mL streptomycin and 400 ug/mL of Geneticin). The assay media was MEM supplemented with 0.5% fetal bovine serum, 1× NEAA, 1 mM Pyruvate, 50 μg/mL penicillin and 50 U/mL streptomycin.
Reporter cells were harvested from the tissue culture flasks by incubation in small quantity of Versene at room temperature for three to five minutes after the media in the flask was removed and cells rinsed with PBS. Cells were counted and diluted in the assay media at ˜0.8×10^6 cells/mL then 50 uL/well were added to 96-well assay plate. Test samples (at desired concentrations diluted in assay media) were added to assay plate containing the 50 uL/well of cells (or media only), 50 uL per well, and incubated for 5-6 hours at 37° C. in a 5% CO2 humidified incubator. After that time, 15 uL of TGFb diluted to 12.5 ng/mL in the assay media was added to the plate. Controls included TGFb titration (from 25 to 0 ng/mL) without inhibitors, and media only (without cells, inhibitor or TGFb). Plates were incubated at 37° C. in a 5% CO2 humidified incubator for 18 h. Luciferase substrate solution was subsequently added at 75 uL per well, incubated in dark with shaking at room temperature for 10 min, and luminescence was measured using a luminometer.

IC50 (ALK5) | IC50 [1] | Structure (SMILES)
1 to 10 µM | 0.1 to 1 µM | Cc1cccc(-c2nc(CNc3cncc(CN)c3)[nH]c2-c2ccc3ncnn3c2)n1 [Compound 1.19, N-((5-([1,2,4]triazolo[1,5-a]pyridin-6-yl)-4-(6-methylpyridin-2-yl)-1H-imidazol-2-yl)methyl)-5-(aminomethyl)pyridin-3-amine]
0.1 to 1 µM | 0.1 to 1 µM | Cc1cccc(-c2nc(CNCc3ccc4ccccc4c3)[nH]c2-c2ccc3ncnn3c2)n1 [Compound 1.58, 1-(5-([1,2,4]triazolo[1,5-a]pyridin-6-yl)-4-(6-methylpyridin-2-yl)-1H-imidazol-2-yl)-N-(naphthalen-2-ylmethyl)methanamine]
